How the values were obtained:
Format in all cases: biochemical
Human HDAC1 = Human HDAC1 (Homo sapiens (Human), UniProt Q13547); assay: Inhibition of catalyzing activity of histone deacetylase 1 (HDAC1), fluorescence detection; details: for IC50: substrate Ac-Lys-Tyr-Lys(Ac)-AMC, * average of three experiments ± SD, ** one experiment
Experimental: Human HDAC1, obtained by utilizing baculovirus expression system;
Substrate, Ac-Lys-Tyr-Lys (Ac)-AMC;
Enzymatic activity was tested in 96-well or 384-well flat microwell plate by fluorescence detection and taking Ac-Lys-Tyr-Lys(Ac)-AMC as substrate. The tested samples was firstly formulated to be a 10^−2 M stock solution in DMSO, subpackaged and storaged at −20° C., and then diluted to required concentration with reaction buffer before use. […] The initial reaction speed was calculated by detecting the change of fluorescence signal with time.

[1] = target: PDGFR-β (Platelet-Derived Growth Factor Receptor β) protein tyrosine kinase (Homo sapiens (Human), UniProt P09619); assay: Inhibition of PDGFR-β protein tyrosine kinase substrate phosphorylation, ELISA; details: for IC50: ELISA, ATP 5 μM, * average of three experiments ± SD, ** one experiment; for inhibition of the activity of PDGFR-β tyrosine kinase, conclusion in words: at the molecular level
Experimental: Embodiment 19: Inhibition of Compound IIa, IIb, IIc and IId on the Activity of Catalyzing Substrate Phosphorylation of PDGFR-β (Platelet-Derived Growth Factor Receptor β) Protein Tyrosine Kinase at the Molecular Level: Enzyme-Linked Immunosorbent Assay (ELISA)
Tyrosine kinase PDGFR-β (MILLIPORE);
Kinase reaction substrate Poly(Glu,Tyr)4:1 (SIGMA);
(§1) (1) Kinase reaction substrate Poly(Glu,Tyr)4:1 was diluted to 20 µg/ml with potassium ion-free PBS, and enzyme labeled plate was coated by the substrate, reacted at 37° C. for 12-16 h, and then the liquid in holes was removed.
(§2) (2) Enzyme labeled plate was washed with T-PBS for 10 min three times.
(§3) (3) Enzyme labeled plate was dried at 37° C. in a dryer.
(§4) (4) The tested samples were added into holes of the coated enzyme labeled plate:
The tested samples were firstly formulated to be a 10^−2 M stock solution in DMSO, subpackaged and storaged at −20° C., and then diluted to required concentration with reaction buffer before use, added into the experiment holes to reach corresponding final concentration in a 100 μL reaction system. Meanwhile, positive control holes were created, and positive control compound Su11248 was added.
(§5) (5) Adding ATP and the tested tyrosine kinase:
(§6) ATP solution (final concentration 5 μM) diluted with reaction buffer was added, and then tested tyrosine kinase diluted with reaction buffer was added. Total volume of the reaction system was 100 μL. Meanwhile, negative control holes and enzyme-free control holes were created.
(6) The reaction system were placed in a wet box, reacted at 37° C. on a shaking table for 1 hour under a condition that light was prohibited, and after the reaction, the plate was with T-PBS washed for three times.
(7) Antibody PY99 100 μL/hole was added, and reacted at 37° C. on a shaking table for 30 minutes. The plate was washed for three times with T-PBS.
(§7) (8) Horseradish peroxidase labeled Sheep anti mouse IgG 100 μL/hole was added, and reacted at 37° C. on a shaking table for 30 minutes. The plate was washed for three times with T-PBS.
(§8) (9) OPD coloring solution 100 μL/hole was added, and reacted at room temperature for 1-10 minutes under a condition that light was prohibited.
(§9) (10) 2M H2SO4 50 μL was added to terminate the reaction, and value A490 was measured by tunable wavelength type micro plate (Molecular Devices SPECTRAMAX190).
(§10) (11) The inhibition rate of the sample was obtained by the following equation:
(§11) [formula] Experimental Result

[2] = target: KDR (VEGFR2) protein tyrosine kinase (Homo sapiens (Human), UniProt P35968); assay: Inhibition of KDR (VEGFR2) protein tyrosine kinase substrate phosphorylation, ELISA; details: for IC50: ELISA, ATP 5 μM, * average of three experiments ± SD, ** one experiment
Experimental: Kinase reaction substrate Poly(Glu, Tyr)4:1 (SIGMA);
as §1, §2, §3, §4
The tested samples was firstly formulated to be a 10^−2 M stock solution in DMSO, subpackaged and storaged at −20° C., and then diluted to required concentration with reaction buffer before use, added into the experiment holes to reach corresponding final concentration in a 100 μL reaction system. Meanwhile, positive control holes were created, and added with positive control compound Su11248.
as §5, §6
(6) The reaction systems were placed in a wet box, reacted at 37° C. on a shaking table for 1 hour under a condition that light was prohibited, and after the reaction, the plate was washed with T-PBS for three times.
(7) Antibody PY99 100 μL/hole was added, reacted at 37° C. on a shaking table for 30 minutes. The plate was washed for three times with T-PBS.
as §7, §8, §9, §10, §11

KDR (VEGFR2) protein tyrosine kinase, sequence (P35968 20-1356, species assumed): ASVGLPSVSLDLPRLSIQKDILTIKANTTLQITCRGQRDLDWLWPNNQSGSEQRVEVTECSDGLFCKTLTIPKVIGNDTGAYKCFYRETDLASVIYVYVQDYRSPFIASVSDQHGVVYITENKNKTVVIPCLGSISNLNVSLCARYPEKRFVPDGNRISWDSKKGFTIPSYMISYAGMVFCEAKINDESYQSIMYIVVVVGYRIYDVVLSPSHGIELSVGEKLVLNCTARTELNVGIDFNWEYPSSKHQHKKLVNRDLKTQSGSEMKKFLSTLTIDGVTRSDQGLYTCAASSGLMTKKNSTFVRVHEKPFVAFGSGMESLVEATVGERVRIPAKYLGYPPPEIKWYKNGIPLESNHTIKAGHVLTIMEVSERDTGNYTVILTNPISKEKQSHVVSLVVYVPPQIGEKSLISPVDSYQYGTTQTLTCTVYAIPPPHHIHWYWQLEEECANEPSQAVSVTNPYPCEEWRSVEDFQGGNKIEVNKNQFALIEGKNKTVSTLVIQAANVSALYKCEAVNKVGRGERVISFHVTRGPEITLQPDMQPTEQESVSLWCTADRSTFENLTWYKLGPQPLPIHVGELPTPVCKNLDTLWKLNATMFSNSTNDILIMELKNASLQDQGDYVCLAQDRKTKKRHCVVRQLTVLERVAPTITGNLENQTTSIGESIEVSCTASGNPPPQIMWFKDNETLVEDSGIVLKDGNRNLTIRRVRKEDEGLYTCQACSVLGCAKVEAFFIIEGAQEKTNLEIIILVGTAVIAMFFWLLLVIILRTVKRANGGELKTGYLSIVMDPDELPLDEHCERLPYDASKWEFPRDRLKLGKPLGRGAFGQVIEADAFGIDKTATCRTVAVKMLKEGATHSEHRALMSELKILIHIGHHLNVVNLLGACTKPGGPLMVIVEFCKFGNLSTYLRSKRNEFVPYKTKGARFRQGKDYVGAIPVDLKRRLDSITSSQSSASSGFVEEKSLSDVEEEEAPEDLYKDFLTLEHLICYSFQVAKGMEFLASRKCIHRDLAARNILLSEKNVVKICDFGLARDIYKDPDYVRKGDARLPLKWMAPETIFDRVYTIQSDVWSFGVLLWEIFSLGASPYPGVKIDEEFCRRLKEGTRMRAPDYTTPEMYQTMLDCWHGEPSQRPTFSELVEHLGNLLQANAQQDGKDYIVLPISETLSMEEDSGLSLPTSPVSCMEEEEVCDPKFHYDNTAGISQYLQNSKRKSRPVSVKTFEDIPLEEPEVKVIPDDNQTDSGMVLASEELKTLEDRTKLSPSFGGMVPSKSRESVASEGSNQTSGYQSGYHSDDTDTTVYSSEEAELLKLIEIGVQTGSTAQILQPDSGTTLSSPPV
PDGFR-β (Platelet-Derived Growth Factor Receptor β) protein tyrosine kinase, sequence (P09619 33-1106): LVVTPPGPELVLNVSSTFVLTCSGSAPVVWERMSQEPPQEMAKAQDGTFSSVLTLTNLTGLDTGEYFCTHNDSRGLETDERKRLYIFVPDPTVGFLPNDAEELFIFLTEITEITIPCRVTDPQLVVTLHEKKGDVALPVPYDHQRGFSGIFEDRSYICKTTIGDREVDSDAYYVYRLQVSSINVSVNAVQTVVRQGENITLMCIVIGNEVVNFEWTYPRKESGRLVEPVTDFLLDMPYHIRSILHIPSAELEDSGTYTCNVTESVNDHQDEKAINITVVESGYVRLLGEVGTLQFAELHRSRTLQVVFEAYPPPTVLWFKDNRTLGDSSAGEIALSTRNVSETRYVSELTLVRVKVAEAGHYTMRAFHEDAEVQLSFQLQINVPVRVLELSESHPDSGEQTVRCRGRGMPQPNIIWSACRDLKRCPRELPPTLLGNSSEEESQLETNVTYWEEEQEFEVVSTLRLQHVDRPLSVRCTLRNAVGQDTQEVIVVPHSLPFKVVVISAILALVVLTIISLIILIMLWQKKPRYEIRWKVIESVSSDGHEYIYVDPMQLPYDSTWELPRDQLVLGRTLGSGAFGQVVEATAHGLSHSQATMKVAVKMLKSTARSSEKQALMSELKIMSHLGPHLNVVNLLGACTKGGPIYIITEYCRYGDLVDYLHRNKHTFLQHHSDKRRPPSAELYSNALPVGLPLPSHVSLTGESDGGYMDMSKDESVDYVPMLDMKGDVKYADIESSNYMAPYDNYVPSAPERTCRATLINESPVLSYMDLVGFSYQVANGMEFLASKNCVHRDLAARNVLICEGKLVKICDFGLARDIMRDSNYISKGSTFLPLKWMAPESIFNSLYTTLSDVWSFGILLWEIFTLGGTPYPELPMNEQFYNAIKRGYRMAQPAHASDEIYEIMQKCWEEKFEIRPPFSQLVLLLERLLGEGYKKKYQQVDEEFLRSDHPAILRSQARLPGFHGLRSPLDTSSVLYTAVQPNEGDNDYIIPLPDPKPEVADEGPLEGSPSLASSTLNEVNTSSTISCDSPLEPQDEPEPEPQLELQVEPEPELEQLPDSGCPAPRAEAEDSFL
Human HDAC1, sequence (Q13547 whole entry): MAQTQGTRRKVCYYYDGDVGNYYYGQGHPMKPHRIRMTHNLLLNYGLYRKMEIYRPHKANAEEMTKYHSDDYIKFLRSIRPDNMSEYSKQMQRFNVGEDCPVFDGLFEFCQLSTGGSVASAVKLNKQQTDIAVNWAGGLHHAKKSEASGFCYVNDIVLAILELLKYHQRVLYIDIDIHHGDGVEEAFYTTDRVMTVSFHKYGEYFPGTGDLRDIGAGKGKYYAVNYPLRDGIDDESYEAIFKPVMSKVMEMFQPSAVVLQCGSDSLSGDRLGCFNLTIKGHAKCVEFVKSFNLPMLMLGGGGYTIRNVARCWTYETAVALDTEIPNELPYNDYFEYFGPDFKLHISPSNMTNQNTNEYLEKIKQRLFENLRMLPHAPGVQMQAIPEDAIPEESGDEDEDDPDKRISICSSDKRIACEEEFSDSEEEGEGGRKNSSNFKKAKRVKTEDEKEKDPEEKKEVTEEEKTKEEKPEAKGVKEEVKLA

IC50 (Human HDAC1) [nM] | IC50 [1] [nM] | IC50 [2] [nM] | inhibition of the activity of HDAC1, conclusion in words (Human HDAC1; at the molecular level) | inhibition of the activity of PDGFR-β tyrosine kinase, conclusion in words [1] | inhibition of the activity of VEGFR2 tyrosine kinase, conclusion in words ([2]; at the molecular level) | SMILES
1090 ± 210 | 2.9 ± 1.5 | 3 ± 1 | – | – | – | Cc1cccc(NC(=O)Nc2ccc(-c3nn(CCCCCCCC(=O)NO)c4ncnc(N)c34)cc2)c1 [Compound IIa]
470 ± 70 | 0.5 ± 0.1 | 2.2 ± 0.9 | – | – | – | Cc1ccc(F)c(NC(=O)Nc2ccc(-c3nn(CCCCCCCC(=O)NO)c4ncnc(N)c34)cc2)c1 [Compound IIb]
8650 | 146 | 572 | well inhibit | well inhibit | well inhibit | Cc1cccc(NC(=O)Nc2ccc(-c3nn(CCCN(C)CCCC(=O)NO)c4ncnc(N)c34)cc2)c1 [Compound IIc]
13800 | 99.9 | 1190 | – | well inhibit | – | Cc1cccc(NC(=O)Nc2ccc(-c3nn(CCCN(C)CCCC(=O)NO)c4ncnc(N)c34)cc2)c1 [Compound IId]
